Test results taken from patent publication US20020042072A1, “Method for monitoring the effect of cancer therapies” (priority 2000, published 2002).
Like-named read-outs stand apart in the source and are kept apart here.

Key:
[1] = test system: telomerase activity in A431 xenograft; assay: Telomerase activity (TRAPeze ELISA) in A431 xenograft tumour material; assay type: in vivo, nu/nu mice
Protocol: (§1) Human tumour cells KB (CCL-17) and A43 1 (CRL-1555) were obtained from ATCC and cultured in DMEM medium supplemented with 10% fetal calf serum, 10 mM HEPES, 50 μmol/l beta-mercaptoethanol and a standard complement of antibiotics.
(§2) To establish subcutaneous tumours in nu/nu mice (5-6 week old female animals, supplied by Harlan, The Netherlands), cells were trypsinised, washed and suspended in phosphate-buffered physiological solution+10% fetal calf serum at 10^7 cells/ml. 100 μl cell suspension containing 10^6 cells were then injected subcutaneously into the right flank of the mice (one site per mouse). When tumours were well established and had reached diameters of more than 5-9 mm, mice were randomly distributed between treatment and the vehicle control group (7-10 days after cell injection). Test compounds (1 and 5 mg/ml) were dissolved and administered intragastically by gavage needle. Administration was once daily oral dosing in a volume of 10 ml/kg body weight. Tumour diameters were measured three times weekly with a caliper. Volumes (in mm^3) were calculated according to the formula: tumour volume=length*diameter^2*π/6.
(§3) For measuring telomerase activity, the Oncor®, TRAPeze™ Elisa Telomerase Detection Kit was used. Tumour material surgically removed from mice was cleaned and frozen at −70° C. […]

A431 xenograft = assay: Tumour growth of subcutaneous A431 xenograft; assay type: in vivo, nu/nu mice; conditions: for % reduction of tumour growth: A431 xenograft; for tumor growth in vivo: oral administration, nu/nu mice xenografted with A43 1 or KB tumor cells
Protocol: as §1, §2

[2] = test system: telomerase activity in KB xenograft; assay: Telomerase activity (TRAPeze ELISA) in KB xenograft tumour material; assay type: in vivo, nu/nu mice; conditions: 50 mg/kg once daily oral
Protocol: as §1, §2, §3

KB xenograft = assay: Tumour growth of subcutaneous KB xenograft; assay type: in vivo, nu/nu mice; conditions: 50 mg/kg once daily oral
Protocol: as §1, §2

NB-4 = conditions: NB-4, differentiation-sensitive clones; cited from earlier work
NTERA-2 = conditions: NTERA-2, differentiation-sensitive clones; cited from earlier work
MCF-7 = conditions: cited from earlier work
MDA-MB23 1 = conditions: cited from earlier work

**Q.** Which “% reduction of telomerase activity” value ([1]; 10 mg/kg once daily oral) does the source give for `CC1(N)CCN(c2ncc3ncnc(Nc4ccc(F)c(Cl)c4)c3n2)CC1` [Inhibitor 2, 4-((3-chloro-4-fluoro-phenyl)amino)-6-(4-amino-4-methyl-1-piperidinyl)-pyrimido(5,4d)pyrimidine] here?
**A.** 96%

**Q.** What about the “% reduction of tumour growth” value (A431 xenograft; 10 mg/kg once daily oral) of the same compound?
**A.** 90%

**Q.** And the “tumor growth in vivo” value (A431 xenograft)?
**A.** inhibited tumor growth in vivo

**Q.** Which results are given for `CN1CCC(Nc2ncc3ncnc(Nc4ccc(F)c(Cl)c4)c3n2)CC1` [Inhibitor 1, 4-((3-chloro-4-fluoro-phenyl)amino)-6-(1-methyl-4-piperidinyl-amino)-pyrimido(5,4d)pyrimidine]?
**A.** % reduction of telomerase activity ([1]; 50 mg/kg once daily oral): 100%; % reduction of tumour growth (A431 xenograft; 50 mg/kg once daily oral): 79%; tumor growth in vivo (A431 xenograft): inhibited tumor growth in vivo; % reduction of telomerase activity [2]: 6%; % reduction of tumour growth (KB xenograft): 51%

**Q.** For `CC(=O)NCCCCCCNC(C)=O` [hexamethylene bisacetamide], which telomerase activity (NB-4) is on record?
**A.** decline in telomerase activity

**Q.** And the telomerase activity (NTERA-2)?
**A.** decline in telomerase activity

**Q.** For `CC1=C(/C=C/C(C)=C/C=C/C(C)=C/C(=O)O)C(C)(C)CCC1` [all-trans-retinoic acid], which telomerase activity (NB-4) is on record?
**A.** decline in telomerase activity

**Q.** And the telomerase activity (NTERA-2)?
**A.** decline in telomerase activity

**Q.** For `CC/C(=C(\c1ccccc1)c1ccc(OCCN(C)C)cc1)c1ccccc1` [tamoxifen], which telomerase activity (MCF-7; MCF-7, 10^−8M) is on record?
**A.** repressive effect

**Q.** What about the telomerase activity (MCF-7; MCF-7, higher (10^−7 and 10^−6M) or lower (10^−9M) concentrations) of the same compound?
**A.** no effect

**Q.** And the telomerase activity (MDA-MB23 1; MDA-MB23 1, 10^−8M)?
**A.** repressive effect

**Q.** And the telomerase activity (MDA-MB23 1; MDA-MB23 1, higher (10^−7 and 10^−6M) or lower (10^−9M) concentrations)?
**A.** no effect
